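Cells were grown in 96-well plates and exposed to each compound for 48 hours at five concentrations; endpoints were interpolated linearly between bracketing concentrations, or set to the highest concentration if not reached. TGI denotes the concentration required for complete inhibition of growth.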
Legend:
Test in all cases: NCI-60 cell line screen, 48 h
[1] = tested on: EKVX NSCLC
[2] = tested on: CAKI-1 renal
[3] = tested on: OVCAR-8 ovarian
[4] = tested on: HOP-62 NSCLC
[5] = tested on: TK-10 renal
[6] = tested on: HCT-15 colon
[7] = tested on: M14 melanoma
[8] = tested on: SF-268 CNS
[9] = tested on: U251 CNS
[10] = tested on: OVCAR-3 ovarian

| SMILES | TGI [1] | TGI [2] | TGI [3] | TGI [4] | TGI [5] | TGI [6] | TGI [7] | TGI [8] | TGI [9] | TGI [10] |
| --- | --- | --- | --- | --- | --- | --- | --- | --- | --- | --- |
| O=C(/C=C/c1cccs1)c1ccc([N+](=O)[O-])cc1 | > 100 µM | > 100 µM | > 100 µM | > 100 µM | > 100 µM | > 100 µM | > 100 µM | > 100 µM | > 100 µM | – |
| CC(=O)OC1CC[C@@]2(C)C(=CC[C@@H]3[C@@H]2CC[C@]2(C)C(OC(C)=O)[C@H](n4ccnc4)C[C@@H]32)C1 (stereo partly specified) | > 100 µM | > 100 µM | 44.2 µM | – | > 100 µM | 30.6 µM | 31.2 µM | > 100 µM | > 100 µM | – |
| C=CCCCCCCCCC(=O)ON(Cc1ccc(O)c(OC)c1)C(=O)C(F)(F)F | > 100 µM | – | > 100 µM | > 100 µM | > 100 µM | > 100 µM | > 100 µM | > 100 µM | > 100 µM | – |
| N/C(=N\N=C/c1cc([N+](=O)[O-])cc([N+](=O)[O-])c1O)NO | > 100 µM | > 100 µM | > 100 µM | > 39.1 µM | – | > 100 µM | – | > 100 µM | > 100 µM | > 100 µM |
| CCN(CC)C(=S)S | > 100 µM | – | > 100 µM | > 100 µM | > 100 µM | > 100 µM | > 59.8 µM | > 100 µM | – | – |
| NC(N)=N/N=C\c1c(-c2ccccc2)nc2sccn12 | 28.1 µM | 29.6 µM | 30.9 µM | 29.1 µM | 31.2 µM | 29.8 µM | – | 29.9 µM | 28.5 µM | – |
| CCN(CCCl)c1cc(CN(C)C)cc(NC(=O)c2cc(C(=O)Nc3cc(CN(C)C)cc(N(CC)CCCl)c3)n(C)n2)c1 | – | 2.72 µM | 1.13 µM | 1.21 µM | 6.17 µM | 10.5 µM | 2.01 µM | 1.56 µM | 0.387 µM | – |
| O=C(/C=C/c1ccc(Cl)cc1)c1ccc(Cl)s1 | > 100 µM | – | > 100 µM | > 100 µM | > 100 µM | > 100 µM | > 100 µM | > 100 µM | > 100 µM | > 100 µM |
| CC(=O)c1sc2c(c1O)c(=O)n(-c1ccccc1)c(=S)n2-c1ccccc1 | – | – | > 100 µM | – | > 100 µM | > 100 µM | > 100 µM | > 100 µM | > 100 µM | > 100 µM |
| O=C1CC(=O)NC(=NN2C(=O)/C(=C/c3ccc(Cl)cc3)N=C2c2ccccc2)N1 | – | > 100 µM | 30.5 µM | 30.2 µM | 43.2 µM | 30.8 µM | 29.3 µM | 34.2 µM | 33 µM | 32.6 µM |

Source: PubChem BioAssay (NCI)
